Data set [1] concerns the target Ba/F3-L858R/T790M/C797S (Homo sapiens, UniProt P00533, T790M/C797S/L858R, cells depend on it). The experiment in a line: Ba/F3-L858R/T790M/C797S cell proliferation assay (CellTiter Glo, 72 h). In kind it is cell-based. The note with it: CTG, numeric values, read-out: BaF3 L858R/T790M/C797S IC50. Summed up:
(§1)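 Cells seeded at 2000/well and exposed 72 h to compound at 1000 to 0.2 nM (0.1% DMSO). Viability read by CellTiter-Glo luminescence; IC50 from four-parameter nonlinear regression of signal vs. log concentration.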

Data set [2] concerns A431 EGFR wild-type cell line. The experiment in a line: A431 EGFR wild-type cell proliferation assay (CellTiter Glo, 72 h). In kind it is cell-based. The note with it: Homo sapiens, A-431, CTG, read-out: A431 EGFR WT IC50. The method, boiled down:
as §1

Data set [3] can be described thus: Liver microsomal clearance test, rat. In kind it is in vitro ADME. The note with it: Rat liver microsomes, 0.5 mg/mL, NADPH. On the procedure: (§2) Test 3 Liver Microsomal Clearance Test
(§3) 1. Prepare 0.5 mg/mL liver microsome diluent containing K-butter and MgCl2:
(§4) 2.1 Take 356 μL of the liver microsome diluent prepared above and add it to the preset wells of the incubation plate, the number of multiple wells n=1, mark it as the incubation plate.
(§5) 2.2 Take 4 μL of the positive control compound Verapamil (50 μM) and the working solution of the test compound (200 μM) into the above incubation plate containing 356 μL of liver microsome diluent, and mix well (The dilution solvent from the stock solution to the working solution is a mixed solvent of acetonitrile: methanol: water=1:1:2, and the final concentration of DMSO is ≤0.5%),
(§6) 2.3 Place the incubation plate in a 37° C. thermostatic oscillator (at shaking speed of 100 rpm) for pre-incubation with 10 min.
(§7) 2.4 Add 40 μL of 10 mM NADPH (add 40 μL of K-buffer to the wells without NADPH) to each reaction well to start the reaction and start timing.
(§8) 3. Sample collection and treatment:
(§9) 3.1 After adding NADPH to start the reaction, immediately take out 50 μL of the sample and add it to the precipitation plate pre-added with 400 μL of stop solution, and shake on an oscillator at 600 rpm for 5 min at room temperature as a 0 min sample.
(§10) 3.2 At the predetermined time points of 5 min, 15 min and 45 min, take out 50 μL of sample from the incubation plate and add it to the precipitation plate. The subsequent steps were the same as the treatment of 0 min sample. 3.3 After balancing, centrifuge above precipitation plate at 3200 rpm for 10 min at 4° C.
(§11) 3.4 Take 50 μL of the supernatant after centrifugation and add it to pre-added 20% acetonitrile water at appropriate proportion, shake on an oscillator at 600 rpm for 2 min at room temperature, mix well, and put it into the LC-MS/MS sampler for sample injection.
(§12) Analysis of Experimental Data
1. […]

Data set [4] is described as follows: Liver microsomal clearance test, mice. In kind it is in vitro ADME. The note with it: Mice liver microsomes, 0.5 mg/mL, NADPH. On the procedure: as §2, §3, §4, §5, §6, §7, §8, §9, §10, §11, §12
1. […]

For data set [5], the target named is T1, hERG protein (Homo sapiens, UniProt Q12809).
T1 construct: purchased
The experiment in a line: hERG IC50 test (tracer/membranes fluorescence polarization). In kind it is binding. The note with it: hERG membranes and tracer, read-out: IC50 results of hERG protein to compound. The procedure: 1. Thaw hERG kits (Tracer, E-4031 and Membranes) at room temperature;
2. Add 10 μL of positive compound E-4031 and 10 μL of test compound (10 mM) to 384 well plate (Corning, Art. No. 3658);
3. E-4031 is sequentially 5-fold diluted by pure water (10 concentration points in total), and the test compound is sequentially 5-fold diluted by DMSO (10 concentration points in total).
4. Take 1 μL of all gradient concentrations and add them in parallel to the wells containing 24 μL Assay buffer, and dilute 25 times (take 3 μL of the maximum concentration of E-4031 and add it to 72 μL Assay buffer).
5. Add 10 μL Membranes to another black 384-well plate (Coming, Art.4511).
6. Take 5 μL of 25-fold diluted working solution of positive and test compounds, and add it to above-mentioned plate with 10 μL Membranes, 2 copies at each concentration.
7. Negative control: Add 5 μL Assay buffer to the well with 10 μL Membranes, 8 copies in parallel;
8. Positive control: Add 5 μL E-4031 (120 μM) to the well with 10 μL Membranes, 8 copies in parallel;
9. […]
10. Before measuring the fluorescence polarization, cover the analysis plate to protect the reagents from light and evaporation, and incubate at room temperature (20-25° C.) for 2 hours.
11. Read fluorescence polarization in PerkinElmer EnVision® Multilabel after incubation; […]

T1 sequence (Q12809 whole entry): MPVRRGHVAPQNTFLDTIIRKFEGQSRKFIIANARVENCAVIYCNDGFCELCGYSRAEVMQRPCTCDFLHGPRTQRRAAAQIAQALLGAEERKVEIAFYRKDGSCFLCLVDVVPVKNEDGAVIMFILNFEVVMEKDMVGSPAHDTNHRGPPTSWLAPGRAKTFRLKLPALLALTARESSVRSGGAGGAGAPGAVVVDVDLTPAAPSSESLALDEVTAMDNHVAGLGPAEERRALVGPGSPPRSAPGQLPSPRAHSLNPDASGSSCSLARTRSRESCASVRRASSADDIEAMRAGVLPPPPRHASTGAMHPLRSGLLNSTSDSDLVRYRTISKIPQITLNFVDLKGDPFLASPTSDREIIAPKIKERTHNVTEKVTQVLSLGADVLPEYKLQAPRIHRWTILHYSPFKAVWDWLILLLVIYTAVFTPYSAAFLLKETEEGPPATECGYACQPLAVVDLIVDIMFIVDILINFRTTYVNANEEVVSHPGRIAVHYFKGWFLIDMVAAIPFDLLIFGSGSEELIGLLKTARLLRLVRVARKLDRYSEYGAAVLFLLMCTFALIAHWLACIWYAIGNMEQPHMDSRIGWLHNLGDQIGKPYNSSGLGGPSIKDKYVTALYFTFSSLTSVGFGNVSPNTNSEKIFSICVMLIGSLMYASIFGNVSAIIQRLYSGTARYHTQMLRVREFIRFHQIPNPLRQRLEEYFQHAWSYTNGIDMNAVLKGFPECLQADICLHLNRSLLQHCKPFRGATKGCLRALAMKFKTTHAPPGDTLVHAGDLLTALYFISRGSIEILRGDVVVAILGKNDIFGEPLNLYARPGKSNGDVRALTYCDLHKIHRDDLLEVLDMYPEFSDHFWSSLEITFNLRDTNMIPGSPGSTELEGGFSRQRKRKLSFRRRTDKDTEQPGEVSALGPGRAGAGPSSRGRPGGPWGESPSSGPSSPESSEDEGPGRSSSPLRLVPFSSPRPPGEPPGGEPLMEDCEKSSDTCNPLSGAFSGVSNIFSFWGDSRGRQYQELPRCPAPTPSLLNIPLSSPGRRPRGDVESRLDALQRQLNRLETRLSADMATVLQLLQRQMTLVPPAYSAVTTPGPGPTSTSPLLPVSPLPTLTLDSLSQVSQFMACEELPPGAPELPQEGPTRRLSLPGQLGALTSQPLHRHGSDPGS
Ba/F3-L858R/T790M/C797S, sequence (P00533 whole entry T790M/C797S/L858R): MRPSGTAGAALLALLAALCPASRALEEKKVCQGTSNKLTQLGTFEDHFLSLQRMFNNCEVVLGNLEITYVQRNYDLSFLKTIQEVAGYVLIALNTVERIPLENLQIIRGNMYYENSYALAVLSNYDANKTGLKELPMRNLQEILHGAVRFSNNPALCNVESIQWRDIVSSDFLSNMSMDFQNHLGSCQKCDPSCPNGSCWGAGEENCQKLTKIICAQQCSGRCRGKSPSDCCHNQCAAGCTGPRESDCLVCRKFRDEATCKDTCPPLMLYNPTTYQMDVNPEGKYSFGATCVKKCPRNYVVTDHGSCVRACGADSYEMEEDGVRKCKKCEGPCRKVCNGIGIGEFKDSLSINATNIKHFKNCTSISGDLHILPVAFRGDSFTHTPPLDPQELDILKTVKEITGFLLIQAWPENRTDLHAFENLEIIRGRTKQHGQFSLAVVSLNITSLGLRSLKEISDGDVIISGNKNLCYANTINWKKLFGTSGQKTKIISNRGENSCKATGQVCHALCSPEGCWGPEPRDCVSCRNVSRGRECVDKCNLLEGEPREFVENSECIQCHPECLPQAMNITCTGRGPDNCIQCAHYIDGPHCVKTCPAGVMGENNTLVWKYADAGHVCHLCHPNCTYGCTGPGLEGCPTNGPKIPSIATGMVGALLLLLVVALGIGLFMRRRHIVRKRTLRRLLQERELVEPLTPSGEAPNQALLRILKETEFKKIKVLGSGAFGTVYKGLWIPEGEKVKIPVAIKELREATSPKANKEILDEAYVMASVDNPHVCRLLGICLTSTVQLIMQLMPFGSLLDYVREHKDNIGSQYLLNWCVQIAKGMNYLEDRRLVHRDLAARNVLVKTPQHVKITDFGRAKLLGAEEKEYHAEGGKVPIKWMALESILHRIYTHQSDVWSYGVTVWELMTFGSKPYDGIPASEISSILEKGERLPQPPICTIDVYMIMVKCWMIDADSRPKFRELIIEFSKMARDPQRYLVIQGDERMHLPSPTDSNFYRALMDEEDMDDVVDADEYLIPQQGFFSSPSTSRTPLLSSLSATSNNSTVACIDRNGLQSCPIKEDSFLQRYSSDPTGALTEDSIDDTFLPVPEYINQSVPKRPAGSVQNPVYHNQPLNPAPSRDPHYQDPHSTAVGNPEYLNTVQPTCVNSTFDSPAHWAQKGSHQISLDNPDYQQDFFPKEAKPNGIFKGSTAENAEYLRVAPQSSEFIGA

Take `COc1cc(N2CCC(N3CCN(C)CC3)CC2)c(-c2cnn(C)c2)cc1Nc1ncc(Cl)c(Nc2ccc3nccnc3c2P(C)(C)=O)n1` [Compound 1, (6-((5-Chloro-2-((2-methoxy-5-(1-methyl-1hydro-pyrazol-4-yl)-4-(4-(4-methylpiperazine-1-yl)piperidin-1-yl)phenyl)amino)pyrimidin-4-yl)amino)quinoxalin-5-yl)dimethylphosphine oxide]: the GI50 in data set [1] amounted to 2.1 nM. Besides, the half-maximal inhibitory concentration (IC50) in data set [2] was 112 nM; in data set [5] it was above 30000 nM. For the same compound, the “Instrinsic clearance of liver microsomal protein, CLint” value is recorded as 4 μL/min/mg proteins in data set [3] and 6.6 μL/min/mg proteins in data set [4].
